Test results taken from the NIST ThermoML archive (doi:10.1021/je300630u).
± gives the expanded uncertainty stated by the source.

How the values were obtained:
[1] = refractive index (other wavelength) (dimensionless); conditions: 101 kPa, Liquid, Wavelength=632.8 nm, Standard Abbe refractometry
[2] = refractive index (other wavelength) (dimensionless); xn = mol fraction of the nth substance listed; conditions: 295.84 K, 101.3 kPa, Liquid, Wavelength=632.8 nm, Standard Abbe refractometry

N#Cc1ccccc1 [benzonitrile]
[1]
Conditions | refractive index
293.37 K | 1.5252 ± 0.0004
293.99 K | 1.5249 ± 0.0004
294.53 K | 1.5247 ± 0.0004
295.09 K | 1.5243 ± 0.0004
295.66 K | 1.5241 ± 0.0004
295.84 K | 1.5239 ± 0.0004
296.11 K | 1.5238 ± 0.0004
296.8 K | 1.5236 ± 0.0004
297.15 K | 1.5233 ± 0.0004
297.91 K | 1.523 ± 0.0004
298.2 K | 1.5228 ± 0.0004
298.8 K | 1.5225 ± 0.0004
298.83 K | 1.5226 ± 0.0004
299.26 K | 1.5223 ± 0.0004
300.06 K | 1.5219 ± 0.0004
300.12 K | 1.5219 ± 0.0004
300.31 K | 1.5218 ± 0.0004
301.13 K | 1.5214 ± 0.0004
301.23 K | 1.5214 ± 0.0004
301.35 K | 1.5213 ± 0.0004
302.26 K | 1.5209 ± 0.0004
302.31 K | 1.5209 ± 0.0004
302.42 K | 1.5208 ± 0.0004
303.41 K | 1.5203 ± 0.0004
304.49 K | 1.5198 ± 0.0004
305.64 K | 1.5192 ± 0.0004
306.89 K | 1.5186 ± 0.0004
307.88 K | 1.5181 ± 0.0004

N#Cc1ccccc1 [benzonitrile] + CCCCCCCCCCCCC
[2]
Conditions | refractive index
x1 = 0.1148 | 1.428 ± 0.0004
x1 = 0.2007 | 1.4323 ± 0.0004
x1 = 0.3192 | 1.439 ± 0.0004
x1 = 0.3935 | 1.4443 ± 0.0004
x1 = 0.5 | 1.4525 ± 0.0004
x1 = 0.6113 | 1.4629 ± 0.0004
x1 = 0.7078 | 1.4738 ± 0.0004
x1 = 0.8007 | 1.4865 ± 0.0004
x1 = 0.9009 | 1.5032 ± 0.0004
x1 = 1 | 1.5239 ± 0.0004

CCCCCCCCCCCCC [tridecane]
[1]
Conditions | refractive index
293.2 K | 1.4244 ± 0.0004
294.26 K | 1.4239 ± 0.0004
295.29 K | 1.4234 ± 0.0004
295.84 K | 1.4231 ± 0.0004
296.33 K | 1.423 ± 0.0004
297.35 K | 1.4225 ± 0.0004
298.37 K | 1.4221 ± 0.0004
299.42 K | 1.4216 ± 0.0004
300.39 K | 1.4212 ± 0.0004
301.47 K | 1.4207 ± 0.0004

CCCCCCCCCCCCC [tridecane] + N#Cc1ccccc1
Conditions | refractive index
[2], x2 = 0 | 1.4231 ± 0.0004
